Data published in patent publication US10821115B2, “Compounds that inhibit Mcl-1 protein” (priority 2017, dated 2020).
Where two headings read alike, the source gives them in different places.

Assays:
[1] = target: recombinant human Mcl-1 (residues 171-327) / Bim interaction (Homo sapiens (Human), UniProt Q07820); experiment: biochemical; type: binding; conditions: read-out: Mcl-1 HTRF IC50
[2] = tested on: human multiple myeloma cell line, OPM-2; experiment: Cell viability assay (OPM-2 10 FBS), CellTiter-Glo; type: cell-based
Outline: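 Cells were seeded at 3000 cells/well in RPMI 1640 with 10% FBS and exposed to serially diluted compounds for 16 h at 37 °C, 5% CO2.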

[3] = TR-FRET, Mcl-1(171-327) / biotin-Bim (51-76)
[4] = Homo sapiens, OPM-2, 16 h, read-out: OPM-2 10% FBS IC50 IP, OPM-2 cells, 10% FBS, 16 h, CellTiter-Glo
[5] = 0.1 nM Mcl-1(171-327), 0.05 nM biotin-Bim (51-76)
[6] = Homo sapiens, OPM-2, 16 h, read-out: OPM-2 10% FBS IC50 IP, OPM-2 cells, 10% FBS, 16 h incubation
[7] = read-out: OPM-2 10% FBS IC50 IP, OPM-2 cells, 10% FBS, 16 h, CellTiter-Glo

Chain of recombinant human Mcl-1 (residues 171-327) / Bim interaction (Q07820 171-327): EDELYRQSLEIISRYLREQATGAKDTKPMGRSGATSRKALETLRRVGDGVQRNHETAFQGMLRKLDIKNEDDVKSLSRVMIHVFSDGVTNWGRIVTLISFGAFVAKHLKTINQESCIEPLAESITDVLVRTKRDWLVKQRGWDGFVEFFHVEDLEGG

COC(=O)[C@]1(O)/C=C/C[C@H](C)[C@@H](C)S(=O)(=O)NC(=O)c2ccc3c(c2)N(C[C@@H]2CC[C@H]21)C[C@@]1(CCCc2cc(Cl)ccc21)CO3 [Example 100061, methyl (1S,3′R,6′R,7′S,8′E,11′S,12′R)-6-chloro-7′-hydroxy-11′,12′-dimethyl-15′-oxo-3,4-dihydro-2H-spiro[naphthalene-1,22′-[20]oxa[13]thia[1,14]diazatetracyclo [14.7.2.0~3,6~.0~19,24~]pentacosa[8,16,18,24]tetraene]-7′-carboxylate 13′,13′-dioxide]
IC50 [1, 3]: 0.78 nM
IC50 [2, 4]: 529 nM

CO[C@@]1(CN2CCC3(CCOCC3)CC2)/C=C/C[C@H](C)[C@@H](C)S(=O)(=O)NC(=O)c2ccc3c(c2)N(C[C@@H]2CC[C@H]21)C[C@@]1(CCCc2cc(Cl)ccc21)CO3 [Example 264, (1S,3′R,6′R,7′S,8′E,11′S,12′R)-6-chloro-7′-methoxy-11′,12′-dimethyl-7′-(3-oxa-9-azaspiro[5.5]undec-9-ylmethyl)-3,4-dihydro-2H,15′H-spiro[naphthalene-1,22′-[20]oxa[13]thia[1,14]diazatetracyclo [14.7.2.0~3,6~.0~19,24~]pentacosa[8,16,18,24]tetraen]-15′-one 13′,13′-dioxide]
IC50 [1, 5]: 0.396 nM
IC50 [2, 6]: 771 nM

CO[C@@]1(CN2CCN(c3ccccn3)CC2)/C=C/C[C@H](C)[C@@H](C)S(=O)(=O)NC(=O)c2ccc3c(c2)N(C[C@@H]2CC[C@H]21)C[C@@]1(CCCc2cc(Cl)ccc21)CO3 [Example 252, (1S,3′R,6′R,7′S,8′E,11′S,12′R)-6-chloro-7′-methoxy-11′,12′-dimethyl-7′-((4-(2-pyridinyl)-1-piperazinyl)methyl)-3,4-dihydro-2H,15′H-spiro[naphthalene-1,22′-[20]oxa[13]thia[1,14]diazatetracyclo [14.7.2.0~3,6~.0~19,24~]pentacosa[8,16,18,24]tetraen]-15′-one 13′,13′-dioxide]
IC50 [1, 5]: 1.38 nM
IC50 [2, 6]: 1800 nM

CC[C@@H]1CC/C=C/[C@](O)(C(F)(F)F)[C@@H]2CC[C@H]2CN2C[C@@]3(CCCc4cc(Cl)ccc43)COc3ccc(cc32)C(=O)NS1(=O)=O [Example 100047, (1S,3′R,6′R,7′R,8′E,12′R)-6-chloro-12′-ethyl-7′-hydroxy-7′-(trifluoromethyl)-3,4-dihydro-2H,15′H-spiro[naphthalene-1,22′-[20]oxa[13]thia[1,14]diazatetracyclo [14.7.2.0~3,6~.0~19,24~]pentacosa[8,16,18,24]tetraen]-15′-one 13′,13′-dioxide]
IC50 [1, 3]: 5.15 nM
IC50 [2, 7]: 2540 nM

Cc1ncc([C@@]2(O)/C=C/C[C@H](C)[C@@H](C)S(=O)(=O)NC(=O)c3ccc4c(c3)N(C[C@@H]3CC[C@H]32)C[C@@]2(CCCc3cc(Cl)ccc32)CO4)n1C (single isomer, unassigned) [Example 100555]
IC50 [1, 3]: 0.101 nM
IC50 [2, 4]: 113 nM

C[C@@H]1[C@@H](C)C/C=C/[C@@](O)(CC(=O)OCC2(C)COC2)[C@@H]2CC[C@H]2CN2C[C@@]3(CCCc4cc(Cl)ccc43)COc3ccc(cc32)C(=O)NS1(=O)=O [Example 100299, (3-methyl-3-oxetanyl)methyl ((1S,3′R,6′R,7′S,8′E,11′S,12′R)-6-chloro-7′-hydroxy-11′,12′-dimethyl-13′,13′-dioxido-15′-oxo-3,4-dihydro-2H-spiro[naphthalene-1,22′-[20]oxa[13]thia[1,14]diazatetracyclo [14.7.2.0~3,6~.0~19,24~]pentacosa[8,16,18,24]tetraen]-7′-yl)acetate]
IC50 [1, 3]: 0.35 nM
IC50 [2, 4]: 623 nM

CO[C@]1(CN2CC(C)(C#N)C2)/C=C/C[C@H](C)[C@@H](C)S(=O)(=O)NC(=O)c2ccc3c(c2)N(C[C@@H]2CC[C@H]21)C[C@@]1(CCCc2cc(Cl)ccc21)CO3 [Example 71, 1-(((1S,3′R,6′R,7′R,8′E,11′S, 12′R)-6-chloro-7′-methoxy-11′,12′-dimethyl-13′,13′-dioxido-15′-oxo-3,4-dihydro-2H-spiro[naphthalene-1,22′-[20]oxa[13]thia[1,14]diazatetracyclo [14.7.2.0~3,6~.0~19,24~]pentacosa[8,16,18,24]tetraen]-7′-yl)methyl)-3-methyl-3-azetidinecarbonitrile]
IC50 [1, 5]: 0.371 nM
IC50 [2, 6]: 1140 nM

CO[C@]1(C#CCN2CCOCC2)/C=C/C[C@H](C)[C@@H](C)S(=O)(=O)NC(=O)c2ccc3c(c2)N(C[C@@H]2CC[C@H]21)C[C@@]1(CCCc2cc(Cl)ccc21)CO3 [Example 100448, (1S,3′R,6′R,7′R,8′E,11′S,12′R)-6-chloro-7′-methoxy-11′,12′-dimethyl-7′-(3-(4-morpholinyl)-1-propyn-1-yl)-3,4-dihydro-2H,15′H-spiro[naphthalene-1,22′-[20]oxa[13]thia[1,14]diazatetracyclo [14.7.2.0~3,6~.0~19,24~]pentacosa[8,16,18,24]tetraen]-15′-one 13′,13′-dioxide]
IC50 [1, 3]: 0.373 nM
IC50 [2, 7]: 1920 nM

CO[C@@]1(C)/C=C/C[C@H](C)[C@@H](CCN2CCOCC2)S(=O)(=O)NC(=O)c2ccc3c(c2)N(C[C@@H]2CC[C@H]21)C[C@@]1(CCCc2cc(Cl)ccc21)CO3 (single isomer, unassigned) [Example 100599]
IC50 [1, 3]: 1.15 nM
IC50 [2, 7]: 1140 nM

CC(C)CO[C@]1(CN2CCN3CCOC[C@@H]3C2)/C=C/C[C@H](C)[C@@H](C)S(=O)(=O)NC(=O)c2ccc3c(c2)N(C[C@@H]2CC[C@H]21)C[C@@]1(CCCc2cc(Cl)ccc21)CO3 [Example 356, (1S,3′R,6′R,7′R,8′E,11′S,12′R)-6-chloro-7′-((9aS)-hexahydropyrazino[2,1-c][1,4]oxazin-8(1H)-ylmethyl)-11′,12′-dimethyl-7′-(2-methylpropoxy)-3,4-dihydro-2H,15′H-spiro[naphthalene-1,22′-[20]oxa[13]thia[1,14]diazatetracyclo [14.7.2.0~3,6~.0~19,24~]pentacosa[8,16,18,24]tetraen]-15′-one 13′,13′-dioxide]
IC50 [1, 5]: 0.11 nM
IC50 [2, 6]: 367 nM

COCC(COC)N1CCN(C[C@@]2(OC)/C=C/C[C@H](C)[C@@H](C)S(=O)(=O)NC(=O)c3ccc4c(c3)N(C[C@@H]3CC[C@H]32)C[C@@]2(CCCc3cc(Cl)ccc32)CO4)CC1 [Example 304, (1S,3′R,6′R,7′R,8′E,11′S,12′R)-6-chloro-7′-methoxy-7′-((4-(2-methoxy-1-(methoxymethyl)ethyl)-1-piperazinyl)methyl)-11′,12′-dimethyl-3,4-dihydro-2H,15′H-spiro[naphthalene-1,22′-[20]oxa[13]thia[1,14]diazatetracyclo [14.7.2.0~3,6~.0~19,24~]pentacosa[8,16,18,24]tetraen]-15′-one 13′,13′-dioxide]
IC50 [1, 5]: 0.226 nM
IC50 [2, 6]: 239 nM

CO[C@@]1(C2SCCCS2)/C=C/C[C@H](C)[C@@H](C)S(=O)(=O)NC(=O)c2ccc3c(c2)N(C[C@@H]2CC[C@H]21)C[C@@]1(CCCc2cc(Cl)ccc21)CO3 [Example 100261, (1S,3′R,6′R,7′S,8′E,11′S,12′R)-6-chloro-7′-(1,3-dithian-2-yl)-7′-methoxy-11′,12′-dimethyl-3,4-dihydro-2H,15′H-spiro[naphthalene-1,22′-[20]oxa[13]thia[1,14]diazatetracyclo [14.7.2.0~3,6~.0~19,24~]pentacosa[8,16,18,24]tetraen]-15′-one 13′,13′-dioxide]
IC50 [1, 3]: 1.22 nM
IC50 [2, 4]: 533 nM

COCC[C@@H]1[C@@H](C)C/C=C/[C@](CN2CCN(C3COC3)CC2)(OC)[C@@H]2CC[C@H]2CN2C[C@@]3(CCCc4cc(Cl)ccc43)COc3ccc(nc32)C(=O)NS1(=O)=O [Example 23, (1S,3′R,6′R,7′S,8′E,11′S,12′R)-6-chloro-7′-methoxy-12′-(2-methoxyethyl)-11′-methyl-7′-((4-(3-oxetanyl)-1-piperazinyl)methyl)-3,4-dihydro-2H,15′H-spiro[naphthalene-1,22′-[20]oxa[13]thia[1,14,25]triazatetracyclo [14.7.2.0~3,6~.0~19,24~]pentacosa[8,16,18,24]tetraen]-15′-one 13′,13′-dioxide]
IC50 [1, 5]: 0.071 nM
IC50 [2, 6]: 24 nM

CO[C@@]1(C#CCO)/C=C/C[C@H](C)[C@@H](C)S(=O)(=O)NC(=O)c2ccc3c(c2)N(C[C@@H]2CC[C@H]21)C[C@@]1(CCCc2cc(Cl)ccc21)CO3 [Example 100345, (1S,3′R,6′R,7′S,8′E,11′S,12′R)-6-chloro-7′-(3-hydroxy-1-propyn-1-yl)-7′-methoxy-11′,12′-dimethyl-3,4-dihydro-2H,15′H-spiro[naphthalene-1,22′-[20]oxa[13]thia[1,14]diazatetracyclo [14.7.2.0~3,6~.0~19,24~]pentacosa[8,16,18,24]tetraen]-15′-one 13′,13′-dioxide]
IC50 [1, 3]: 2.42 nM
IC50 [2, 7]: 218 nM

COc1ccncc1[C@]1(O)/C=C/C[C@H](C)[C@@H](C)S(=O)(=O)NC(=O)c2ccc3c(c2)N(C[C@@H]2CC[C@H]21)C[C@@]1(CCCc2cc(Cl)ccc21)CO3 (single isomer, unassigned) [Example 100557]
IC50 [1, 3]: 0.093 nM
IC50 [2, 4]: 299 nM

CO[C@@]1(CN2CC(C)(C#N)C2)/C=C/C[C@H](C)[C@@H](C)S(=O)(=O)NC(=O)c2ccc3c(c2)N(C[C@@H]2CC[C@H]21)C[C@@]1(CCCc2cc(Cl)ccc21)CO3 [Example 67, 1-(((1S,3′R,6′R,7′S,8′E,11′S, 12′R)-6-chloro-7′-methoxy-11′,12′-dimethyl-13′,13′-dioxido-15′-oxo-3,4-dihydro-2H-spiro[naphthalene-1,22′-[20]oxa[13]thia[1,14]diazatetracyclo [14.7.2.0~3,6~.0~19,24~]pentacosa[8,16,18,24]tetraen]-7′-yl)methyl)-3-methyl-3-azetidinecarbonitrile]
IC50 [1, 5]: 0.197 nM
IC50 [2, 6]: 149 nM
